Results from article PMC11051159, “Green Synthesis of Gold Nanoparticles Using Liquiritin and Other Phenolics from Glycyrrhiza glabra and Their Anti-Inflammatory Activity” (Journal of Functional Biomaterials, 2024).
Values after ≈ are worked out from the molar mass of the structure shown. Read-outs that look alike come from different tables or passages of the source.

What was measured:
RAW 264.7 cells = assay: Cell viability assay (WST-1); type: cell-based, murine; conditions: for IC50: Mus musculus; for concentration at which cell viability was significantly decreased (cytotoxic): range tested 0–100 μg/mL; for effect on cell viability (in words): 0–100 μg/mL
Method: (§1) The RAW 264.7 cells were seeded at 1 × 10^6 cells/mL in 96-well tissue culture-treated plates for cell viability and nitric oxide assays. The seeded cells were incubated under standard tissue culture conditions at 37 °C in a humidified atmosphere of 5% CO2 for approximately 24 h until the cells reached 70–80% confluence. The cells were subsequently exposed to the relevant AuNP conjugates, total extract, or compounds. After that, the cells were either left unstimulated or stimulated with 1 μg/mL lipopolysaccharide (LPS, from E. coli O111:B4, Sigma-Aldrich) to yield a final concentration range of 0–100 μg/mL of the appropriate treatment. The cells were then incubated overnight under standard tissue culture conditions.
(§2) The supernatants were removed after incubation, and cells were washed with phosphate-buffered saline (PBS, Lonza). Cell viability was assessed by adding 50 μL of a 1/10 dilution of 2-(4-iodophenyl)-3-(4-nitrophenyl)-5-(2,4-disulfophenyl)-2H-tetrazolium (WST-1, Roche, Basel, Switzerland) in complete DMEM medium to each well. Metabolically active cells convert the WST-1 reagent to a formazan that can be measured spectrophotometrically. Formazan formation was determined by reading the plate at 450 nm immediately after adding WST-1 and again after an incubation period of 1 h at 37 °C. The increase in absorbance is proportional to formazan formation and directly proportional to cell viability. The difference between the zero-absorbance reading and 1 hr incubation was used to calculate the percentage of cell viability. Cell viability was calculated as a percentage of the control using the below formula:(1) Cell viability as a % of Control=T1−T0/U1−U0×100 where T1 is the absorbance of the treated sample after 1 h, T0 is the absorbance of the treated at 0 h, U1 is the absorbance of the untreated sample after 1h, and U0 is the absorbance of the untreated sample at 0 h.

[1] = test system: NO production, RAW 264.7 cells; assay: Nitric oxide (NO) assay (Griess reaction); type: cell-based, murine; conditions: for IC50: Mus musculus, RAW264.7, RAW 264.7, 1 μg/mL LPS, pure compound, ± SEM, read-out: Approximate NO IC50, +LPS, Comp.; for concentration at which NO production / inflammatory activity was reduced: non-toxic concentrations
Method: as §1
In the initial development of the assay, polymyxin inhibition of LPS inflammatory activity was checked. Polymyxin was established to inhibit LPS-induced inflammatory activity in macrophage cultures. Cell culture supernatants were removed after the overnight incubation with the relevant treatment. They were used to determine the amount of nitrite produced by the cells and used as an indication of NO production. The amount of NO produced was determined against a 0–100 μM nitrite standard range (Sigma-Aldrich). Culture supernatants or nitrite standard (50 μL) were mixed with 50 μL of Griess reagent (Sigma-Aldrich). The absorbance was subsequently read spectrophotometrically at 540 nm (Multiskan Ex, Thermo Electron Corporation, Vantaa, Finland), and the amount of NO produced by the cells was quantified. NO levels were not determined at cytotoxic concentrations.
The NO assay based on the Griess reaction was used to assess the production of NO from the RAW cells after the exposure to the NP extract/pure compounds in either the absence or presence of LPS.

human liver cells, HepG2 = test system: human liver cells, HepG2; design: method as in PMID 31956937; conditions: concentrations ≥ 120 μM, 24 hrs; cited from earlier work
PC12 cells = test system: PC12 cells; design: method as in PMID 19789989; conditions: PC12 cells in the presence of neuronal growth factor, 3- and 5-day periods; cited from earlier work
B65 neuroblastomas = test system: B65 neuroblastomas; design: method as in PMID 28970010; conditions: after 48 h; cited from earlier work
RAW 264.7 cell = test system: RAW 264.7 cell; design: method as in PMID 18295200, PMID 25871879; conditions: 0–1.6 μM or 0–200 μM, 24 h; cited from earlier work
[2] = Cell viability assay (WST-1); type: cell-based, murine; conditions: mouse, RAW 264.7 cells; −LPS, at concentrations ≥ 50 μg/mL; read-out: percentage of viable cells
Method: as §1, §2

[3] = RAW264.7, RAW 264.7, 1 μg/mL LPS, pure compound/extract, overnight exposure, ± SEM, read-out: Approximate cell viability IC50, +LPS, Comp.
[4] = RAW264.7, RAW 264.7, unstimulated (−LPS), pure compound/extract, overnight exposure, ± SEM, read-out: Approximate cell viability IC50, −LPS, Comp.
[5] = RAW 264.7, absence of LPS (basal)

Molecule | IC50 (RAW 264.7 cells; [3]) [µg/mL] | IC50 (RAW 264.7 cells; [4]) [µg/mL] | concentration at which cell viability was significantly decreased (cytotoxic) (RAW 264.7 cells; [5]) [µg/mL] | concentration at which cell viability was significantly decreased (cytotoxic) (RAW 264.7 cells; RAW 264.7, presence of LPS) [µg/mL] | IC50 [1] [µg/mL] | effect on NO secretion (in words) [1, 5] | effect on NO secretion (in words) ([1]; RAW 264.7, presence of LPS) | also measured
O=C1C[C@@H](c2ccc(O[C@@H]3O[C@H](CO)[C@@H](O)[C@H](O)[C@H]3O)cc2)Oc2cc(O)ccc21 [Comp. 1, liquiritin] | ~60.5 (≈ 145 µM) | ~39.7 (≈ 94.9 µM) | 50 to 100 | 50 to 100 | ~16.5 (≈ 39.4 µM) | did not elicit NO secretion | inhibited NO secretion | concentration at which cell viability was significantly decreased (cytotoxic) (RAW 264.7 cells; RAW 264.7, absence of LPS (basal), listed as liquiritin (1)): ≥ 50 µg/mL; concentration at which NO production / inflammatory activity was reduced ([1]; RAW 264.7, presence of LPS, listed as Compound 1): 25 µg/mL; concentration at which NO production / inflammatory activity was reduced ([1]; RAW 264.7, presence of LPS, listed as liquiritin): ≥ 25 µg/mL; HepG2 viability (human liver cells, HepG2): below 40%; concentration at which cell viability decreased (PC12 cells): ≥ 50 µg/mL
O=C(/C=C/c1ccc(O[C@@H]2O[C@H](CO)[C@@H](O)[C@H](O)[C@H]2O)cc1)c1ccc(O)cc1O [Comp. 2, isoliquiritin] | – | – | 100 | – | – | did not affect the level of NO | – | effect on cell viability (in words) (RAW 264.7 cells; RAW 264.7, presence of LPS): no cytotoxicity was exhibited; effect on cell viability (in words) (RAW 264.7 cells; RAW 264.7, presence of LPS, listed as Isoliquiritin (2)): no effect on viability; effect on cell viability (in words) (RAW 264.7 cells; RAW 264.7, presence of LPS, listed as isoliquiritin (2)): did not hinder cell proliferation; concentration at which viability was reduced (B65 neuroblastomas): 100 µM; effect on RAW 264.7 cell viability (in words) (RAW 264.7 cell): not affected
O=C(/C=C/c1ccc(O)cc1)c1ccc(O[C@@H]2O[C@H](CO)[C@@H](O)[C@H](O)[C@H]2O)cc1O [Comp. 3, neoisoliquiritin] | – | – | – | – | – | did not affect the level of NO | did not affect the level of NO | –
CC1(C)C=Cc2c(ccc3c2OC[C@@H](c2ccc(O)cc2O)C3)O1 [Comp. 6, glabridin] | ~27.2 (≈ 83.9 µM) | ~28.4 (≈ 87.6 µM) | ≥ 50 | ≥ 25 | ~27.5 (≈ 84.8 µM) | did not affect NO production | inhibited NO secretion | viability [2]: ≤ 30%; percentage viability (RAW 264.7 cells; +LPS, at concentrations ≥ 25 μg/mL): 65 to 9%; concentration at which toxicity was seen (RAW 264.7 cells; RAW 264.7, LPS status not stated): > 25 µg/mL; concentration at which NO production / inflammatory activity was reduced ([1]; RAW 264.7, presence of LPS): ≥ 12.5 µg/mL
isoliquiritin apioside [Comp. 4] | – | – | – | – | – | did not elicit an inflammatory response | did not impact NO secretion | cell viability reduced to (RAW 264.7 cells; +LPS, 25 μg/mL): 60%; cell viability reduced to (RAW 264.7 cells; +LPS, 50 μg/mL): 70%
liquiritin apioside [Comp. 5] | – | – | – | – | – | – | – | concentration at which cell viability was increased (mitogenic effect) (RAW 264.7 cells; RAW 264.7, presence of LPS): 25 µg/mL; Approximate cell viability IC50, −LPS, Comp. (RAW 264.7 cells; RAW 264.7, unstimulated (−LPS), pure compound/extract, overnight exposure, ± SEM): 47.8 ± 0.2 µg/mL; cell viability reduced to (RAW 264.7 cells; −LPS, 100 μg/mL): 40%; reduction of cell viability (RAW 264.7 cells; −LPS, at concentrations ≥ 50 μg/mL): 40%
